Measured values from patent publication US10640547B2, “Immunotherapy against melanoma and other cancers” (IMMATICS BIOTECHNOLOGIES GMBH, priority 2016, dated 2020).

Each substance was assayed on CD8+ T cells (assay: In vitro immunogenicity: T-cell priming with artificial APCs loaded with peptide/MHC and anti-CD28, pMHC multimer readout). Conditions: Table 10A; HLA class I peptides.
Type: cell-based, human
Excerpt: In order to obtain information regarding the immunogenicity of the TUMAPs of the present invention, the inventors performed investigations using an in vitro T-cell priming assay based on repeated stimulations of CD8+ T cells with artificial antigen presenting cells (aAPCs) loaded with peptide/MHC complexes and anti-CD28 antibody.
In order to perform in vitro stimulations by artificial antigen presenting cells loaded with peptide-MHC complex (pMHC) and anti-CD28 antibody, the inventors first isolated CD8+ T cells from fresh HLA-A*02 leukapheresis products via positive selection using CD8 microbeads (Miltenyi Biotec, Bergisch-Gladbach, Germany) of healthy donors obtained from the University clinics Mannheim, Germany, after informed consent.
PBMCs and isolated CD8+ lymphocytes were incubated in T-cell medium (TCM) until use consisting of RPMI-Glutamax (Invitrogen, Karlsruhe, Germany) supplemented with 10% heat inactivated human AB serum (PAN-Biotech, Aidenbach, Germany), 100 U/ml Penicillin/100 μg/ml Streptomycin (Cambrex, Cologne, Germany), 1 mM sodium pyruvate (CC Pro, Oberdorla, Germany), 20 μg/ml Gentamycin (Cambrex). 2.5 ng/ml IL-7 (PromoCell, Heidelberg, Germany) and 10 U/ml IL-2 (Novartis Pharma, Nürnberg, Germany) were also added to the TCM at this step.
Generation of pMHC/anti-CD28 coated beads, T-cell stimulations and readout was performed in a highly defined in vitro system using four different pMHC molecules per stimulation condition and 8 different pMHC molecules per readout condition.
The purified co-stimulatory mouse IgG2a anti human CD28 Ab 9.3 (Jung et al., 1987) was chemically biotinylated using Sulfo-N-hydroxysuccinimidobiotin as recommended by the manufacturer (Perbio, Bonn, Germany). Beads used were 5.6 μm diameter streptavidin coated polystyrene particles (Bangs Laboratories, Illinois, USA).
800.000 beads/200 μl were coated in 96-well plates in the presence of 4×12.5 ng different biotin-pMHC, washed and 600 ng biotin anti-CD28 were added subsequently in a volume of 200 μl. Stimulations were initiated in 96-well plates by co-incubating 1×10^6 CD8+ T cells with 2×10^5 washed coated beads in 200 μl TCM supplemented with 5 ng/ml IL-12 (PromoCell) for 3 days at 37° C. Half of the medium was then exchanged by fresh TCM supplemented with 80 U/ml IL-2 and incubating was continued for 4 days at 37° C. This stimulation cycle was performed for a total of three times. For the pMHC multimer readout using 8 different pMHC molecules per condition, a two-dimensional combinatorial coding approach was used as previously described (Andersen et al., 2012) with minor modifications encompassing coupling to 5 different fluorochromes. Finally, multimeric analyses were performed by staining the cells with Live/dead near IR dye (Invitrogen, Karlsruhe, Germany), CD8-FITC antibody clone SK1 (BD, Heidelberg, Germany) and fluorescent pMHC multimers. For analysis, a BD LSRII SORP cytometer equipped with appropriate lasers and filters was used. Peptide specific cells were calculated as percentage of total CD8+ cells. Evaluation of multimeric analysis was done using the FlowJo software (Tree Star, Oregon, USA). In vitro priming of specific multimer+CD8+ lymphocytes was detected by comparing to negative control stimulations.

| Substance | Donors (in vitro immunogenicity) | Wells (in vitro immunogenicity) |
| --- | --- | --- |
| 238 (KLLDKPEQFL; listed as Homo sapiens) [compound 238] | ++ (20%-49% = ++) | + (<20% = +) |
| 241 (RLYTKLLNEA; listed as Homo sapiens) [compound 241] | ++++ (≥70% = ++++) | +++ (50%-69% = +++) |
| 243 (ALAGIVTNV; listed as Homo sapiens) [compound 243] | ++++ (≥70% = ++++) | + (<20% = +) |
| 247 (ALLNAILHSA; listed as Homo sapiens) [compound 247] | ++++ (≥70% = ++++) | + (<20% = +) |
| 248 (GLFAGLGGAGA; listed as Homo sapiens) [compound 248] | ++++ (≥70% = ++++) | + (<20% = +) |
| 250 (RVLPPSALQSV; listed as Homo sapiens) [compound 250] | +++ (50%-69% = +++) | + (<20% = +) |
| 252 (YLLDMPLWYL; listed as Homo sapiens) [compound 252] | ++++ (≥70% = ++++) | + (<20% = +) |
| 254 (FLMKNSDLYGA; listed as Homo sapiens) [compound 254] | ++++ (≥70% = ++++) | + (<20% = +) |
| 257 (VLLNEILEQV; listed as Homo sapiens) [compound 257] | ++++ (≥70% = ++++) | ++ (20%-49% = ++) |
| 262 (KLAVALLAA; listed as Homo sapiens) [compound 262] | ++ (20%-49% = ++) | ++ (20%-49% = ++) |
| 264 (KVFDEVIEV; listed as Homo sapiens) [compound 264] | + (<20% = +) | + (<20% = +) |
| 267 (LLTDNVVKL; listed as Homo sapiens) [compound 267] | ++++ (≥70% = ++++) | + (<20% = +) |
| 269 (ALNESLVEC; listed as Homo sapiens) [compound 269] | ++++ (≥70% = ++++) | + (<20% = +) |
| 271 (SLVQRVETI; listed as Homo sapiens) [compound 271] | ++ (20%-49% = ++) | + (<20% = +) |
| 277 (KTASINQNV; listed as Homo sapiens) [compound 277] | ++++ (≥70% = ++++) | +++ (50%-69% = +++) |
| 278 (SLITGQDLLSV; listed as Homo sapiens) [compound 278] | ++++ (≥70% = ++++) | + (<20% = +) |
| 283 (YTFSGDVQL; listed as Homo sapiens) [compound 283] | ++++ (≥70% = ++++) | + (<20% = +) |
| 287 (KISDFGLATV; listed as Homo sapiens) [compound 287] | ++++ (≥70% = ++++) | ++ (20%-49% = ++) |
| 292 (ALGDKFLLRV; listed as Homo sapiens) [compound 292] | ++++ (≥70% = ++++) | + (<20% = +) |
| 294 (FLLAEDTKV; listed as Homo sapiens) [compound 294] | ++++ (≥70% = ++++) | ++ (20%-49% = ++) |
| 298 (KLQEEIPVL; listed as Homo sapiens) [compound 298] | ++++ (≥70% = ++++) | + (<20% = +) |
| 308 (KLLSDPNYGV; listed as Homo sapiens) [compound 308] | ++++ (≥70% = ++++) | + (<20% = +) |

These substances were tested against HLA-A*02:01 (Homo sapiens, UniProt P04439, D140Y/D185E/D98H/E176V/E277Q/G131W/G231S/I119V/I121R/I166T/I218V/L300P/L318F/N151K/N90K/P208A/P217A/Q86G/Q94H/R138H/R169H/T345S) (assay: MHC binding assay (UV-ligand exchange, β2m ELISA)). Conditions: MHC class I binding score; binding to HLA-A*02:01 ranged by peptide exchange yield (UV-ligand exchange, β2m ELISA).
Procedure, shortened: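 Binding capacity is expressed as the yield of UV-mediated ligand exchange, reflecting how well each peptide stabilizes peptide-receptive MHC. Stabilized complexes are read out by anti-β2m HRP ELISA (450 nm) after streptavidin capture, with refolded MLA-001 monomer standards for quantitation.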

| Substance | Peptide exchange |
| --- | --- |
| 207 (VQIGDIVTV; listed as Homo sapiens) [compound 207] | ++++ (>75% = ++++) |
| 208 (YSDDIPHAL; listed as Homo sapiens) [compound 208] | ++ (>20% = ++) |
| 209 (SILDGLIHL; listed as Homo sapiens) [compound 209] | +++ (>50 = +++) |
| 210 (LLPELRDWGV; listed as Homo sapiens) [compound 210] | +++ (>50 = +++) |
| 212 (LLKDSIVQL; listed as Homo sapiens) [compound 212] | +++ (>50 = +++) |

Continued, values first:

| Peptide exchange | Substance |
| --- | --- |
| +++ (>50 = +++) | 214 (VLMEMSYRL; listed as Homo sapiens) [compound 214] |
| +++ (>50 = +++) | 215 (EVISKLYAV; listed as Homo sapiens) [compound 215] |
| ++++ (>75% = ++++) | 216 (TLLHFLAEL; listed as Homo sapiens) [compound 216] |
| +++ (>50 = +++) | 217 (NMMSGISSV; listed as Homo sapiens) [compound 217] |
| +++ (>50 = +++) | 218 (STLHLVLRL; listed as Homo sapiens) [compound 218] |
| +++ (>50 = +++) | 219 (FLDSEVSEL; listed as Homo sapiens) [compound 219] |
| +++ (>50 = +++) | 220 (SAAEPTPAV; listed as Homo sapiens) [compound 220] |
| +++ (>50 = +++) | 221 (SLLPTEQPRL; listed as Homo sapiens) [compound 221] |
| ++++ (>75% = ++++) | 222 (LLSEIEEHL; listed as Homo sapiens) [compound 222] |
| +++ (>50 = +++) | 223 (FLETNVPLL; listed as Homo sapiens) [compound 223] |
| ++ (>20% = ++) | 224 (ILDEPTNHL; listed as Homo sapiens) [compound 224] |
| ++++ (>75% = ++++) | 225 (VLFGAVITGA; listed as Homo sapiens) [compound 225] |
| ++++ (>75% = ++++) | 226 (VLNEYFHNV; listed as Homo sapiens) [compound 226] |
| ++++ (>75% = ++++) | 227 (FLLEQEKTQAL; listed as Homo sapiens) [compound 227] |
| ++++ (>75% = ++++) | 228 (FLNLFNHTL; listed as Homo sapiens) [compound 228] |
| ++++ (>75% = ++++) | 229 (LLEPFVHQV; listed as Homo sapiens) [compound 229] |
| ++++ (>75% = ++++) | 230 (HLDEARTLL; listed as Homo sapiens) [compound 230] |
| +++ (>50 = +++) | 231 (KMVGDVTGA; listed as Homo sapiens) [compound 231] |
| ++++ (>75% = ++++) | 233 (QLYNQIIKL; listed as Homo sapiens) [compound 233] |
| ++++ (>75% = ++++) | 234 (KVPEIEVTV; listed as Homo sapiens) [compound 234] |
| ++++ (>75% = ++++) | 235 (ALADLQEAV; listed as Homo sapiens) [compound 235] |
| ++++ (>75% = ++++) | 236 (GLDSGFHSV; listed as Homo sapiens) [compound 236] |
| ++++ (>75% = ++++) | 237 (VLYNESLQL; listed as Homo sapiens) [compound 237] |
